What was measured:
Human LBAT = target: T1, Human LBAT (Homo sapiens, UniProt Q14973); assay: LBAT (h/m) assay, human LBAT-overexpressing cells, 3H-taurocholic acid uptake; assay type: cell-based; settings: 0.3 μM 3H-taurocholic acid and 7.5 μM cold taurocholic acid, 20 minutes, read-out: hLBAT IC50
T1 construct: expressed in transfected cells; Geneticin-selected
T1 sequence (Q14973 1-349): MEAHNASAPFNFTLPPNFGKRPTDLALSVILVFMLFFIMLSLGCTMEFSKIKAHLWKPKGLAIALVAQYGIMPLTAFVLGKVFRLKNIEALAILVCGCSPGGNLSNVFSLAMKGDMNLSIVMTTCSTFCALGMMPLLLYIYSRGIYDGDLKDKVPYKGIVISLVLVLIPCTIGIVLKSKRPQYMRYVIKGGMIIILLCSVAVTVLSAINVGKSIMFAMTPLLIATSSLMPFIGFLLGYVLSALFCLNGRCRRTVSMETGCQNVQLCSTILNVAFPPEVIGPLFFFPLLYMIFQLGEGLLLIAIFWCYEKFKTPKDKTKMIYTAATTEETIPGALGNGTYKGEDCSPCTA
How it was run: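 Human LBAT-overexpressing cells, washed in FBS-free MEM-alpha, incubated 20 min at 37 °C with 10-point 3-fold inhibitor dilutions (0.2% DMSO final), 0.3 μM 3H-taurocholic acid plus 7.5 μM cold taurocholic acid (mouse LBAT: 25 μM cold). Ice stop, chilled 1 mM taurocholate washes; uptake read by scintillation counting.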

Bioavailability studies = assay type: in vivo, mice; settings: male, mouse, plasma, intravenous 1 mg/kg, oral 10 mg/kg
Experimental: Male mice (C57BL/6 or CD1) or Wistar rats of 8-9 weeks old were used. For each test compound, two groups of 3 animals each were used. One group was administered a single intravenous dose of 1 mg/kg (vehicle 100% DMSO) through the tail vein and the other group was administered a single oral dose of 10 mg/kg through gavage needle. The group that was administered an oral dose was fasted overnight. Blood samples were collected after 0.083, 0.25, 0.5, 1, 2, 4, 6, 8 and 24 hours following intravenous administration, and after 0.25, 0.5, 1, 2, 4, 6, 8 and 24 hours following oral administration. Blood samples were taken from saphenous vein. 0.2% EDTA was used as the anticoagulant. The samples were analyzed by a discovery grade bioanalytical method developed for the estimation of test compound in plasma, using an LC-MS/MS system.

CCCCC1(CC)CN(c2ccccc2)c2cc(Br)c(OCCC(=O)O)cc2S(=O)(=O)C1 (racemic) [Example 1, 3-((7-Bromo-3-butyl-3-ethyl-1,1-dioxido-5-phenyl-2,3,4,5-tetrahydro-1,5-benzothiazepin-8-yl)oxy)propanoic acid]
IC50 (Human LBAT): 2170 nM

CCCCC1(CCCC)CN(c2ccccc2)c2cc(SC)c(OCC(O)C(=O)O)cc2S(=O)(=O)C1 (racemic) [Example 9, 3-((3,3-Dibutyl-7-(methylthio)-1,1-dioxido-5-phenyl-2,3,4,5-tetrahydro-1,5-benzothiazepin-8-yl)oxy)-2-hydroxypropanoic acid]
IC50 (Human LBAT): 396 nM

CCCCC1(C)CN(c2ccccc2)c2cc(N(C)C)c(OCCC(=O)O)cc2S(=O)(=O)C1 (single isomer, unassigned) [29, enantiomer 1]
IC50 (Human LBAT): 2590 nM

CCCCC1(CC)CN(c2ccccc2)c2cc(Cl)c(OC(C)CC(=O)O)cc2S(=O)(=O)C1 (single isomer, unassigned) [30, diastereomer 1]
IC50 (Human LBAT): 283 nM

CCCCC1(C)CN(c2ccccc2)c2cc(SC)c(OCC(O)C(=O)O)cc2S(=O)(=O)C1 (single isomer, unassigned) [32, diastereomer 1]
IC50 (Human LBAT): 2950 nM

CCCCC1(CC)CN(c2ccccc2)c2cc(SC)c(OCC(C)(F)C(=O)O)cc2S(=O)(=O)C1 (single isomer, unassigned) [35, diastereomer 1]
bioavailability (Bioavailability studies; CD1 mice): 8%
IC50 (Human LBAT): 48 nM

CCCCC1(CC)CN(c2ccccc2)c2cc(SC)c(OCC(C)(O)C(=O)O)cc2S(=O)(=O)C1 (single isomer, unassigned) [48, diastereomer 2]
IC50 (Human LBAT): 155 nM

CCCCC1(CC)CN(c2ccccc2)c2cc(Br)c(OCCC(=O)O)cc2S(=O)(=O)C1 (single isomer, unassigned) [Example 2, 3-((7-bromo-3-butyl-3-ethyl-1,1-dioxido-5-phenyl-2,3,4,5-tetrahydro-1,5-benzothiazepin-8-yl)oxy)propanoic acid]
bioavailability (Bioavailability studies; C57BL/6 mice): 104%
IC50 (Human LBAT): 375 nM

CCCCC1(CC)CN(c2ccccc2)c2cc(Cl)c(OCCC(=O)O)cc2S(=O)(=O)C1 (single isomer, unassigned) [Example 6, 3-((3-butyl-7-chloro-3-ethyl-1,1-dioxido-5-phenyl-2,3,4,5-tetrahydro-1,5-benzothiazepin-8-yl)oxy)propanoic acid]
IC50 (Human LBAT): 410 nM

CCCCC1(CCCC)CN(c2ccccc2)c2cc(SC)c(OCC(O)C(=O)O)cc2S(=O)(=O)C1 (single isomer, unassigned) [Example 10, 3-((3,3-dibutyl-7-(methylthio)-1,1-dioxido-5-phenyl-2,3,4,5-tetrahydro-1,5-benzothiazepin-8-yl)oxy)-2-hydroxypropanoic acid]
bioavailability (Bioavailability studies; C57BL/6 mice): 13%
IC50 (Human LBAT): 379 nM

CCCCC1(CCCC)CN(c2ccccc2)c2cc(SC)c(OCC(O)C(=O)O)cc2S(=O)(=O)C1 (single isomer, unassigned) [Example 11, 3-((3,3-dibutyl-7-(methylthio)-1,1-dioxido-5-phenyl-2,3,4,5-tetrahydro-1,5-benzothiazepin-8-yl)oxy)-2-hydroxypropanoic acid]
IC50 (Human LBAT): 613 nM

CCCCC1(CC)CN(c2ccccc2)c2cc(SC)c(OCCC(=O)O)cc2S(=O)(=O)C1 (single isomer, unassigned) [Example 13, 3-((3-butyl-3-ethyl-7-(methylthio)-1,1-dioxido-5-phenyl-2,3,4,5-tetrahydro-1,5-benzothiazepin-8-yl)oxy)propanoic acid]
bioavailability (Bioavailability studies; CD1 mice): 102%
IC50 (Human LBAT): 489 nM

CCCCC1(C)CN(c2ccccc2)c2cc(SC)c(OCCC(=O)O)cc2S(=O)(=O)C1 (single isomer, unassigned) [Example 24, 3-((3-butyl-3-methyl-7-(methylthio)-1,1-dioxido-5-phenyl-2,3,4,5-tetrahydro-1,5-benzothiazepin-8-yl)oxy)propanoic acid]
IC50 (Human LBAT): 596 nM

CCCCC1(CCCC)CN(c2ccccc2)c2cc(Br)c(OCCC(=O)O)cc2S(=O)(=O)C1 [Example 4, 3-((7-Bromo-3,3-dibutyl-1,1-dioxido-5-phenyl-2,3,4,5-tetrahydro-1,5-benzothiazepin-8-yl)oxy)propanoic acid]
IC50 (Human LBAT): 375 nM

CCCCC1(CCCC)CN(c2ccccc2)c2cc(SC)c(OCCC(=O)O)cc2S(=O)(=O)C1 [Example 15, 3-((3,3-dibutyl-7-(methylthio)-1,1-dioxido-5-phenyl-2,3,4,5-tetrahydro-1,5-benzothiazepin-8-yl)oxy)propanoic acid]
IC50 (Human LBAT): 1930 nM

CCCCC1(CC)CN(c2ccccc2)c2cc(SC)c(OCC(C)(F)C(=O)O)cc2S(=O)(=O)C1 (centres unmarked) [Example 34, 3-((3-butyl-3-ethyl-7-(methylthio)-1,1-dioxido-5-phenyl-2,3,4,5-tetrahydro-1,5-benzothiazepin-8-yl)oxy)-2-fluoro-2-methylpropanoic acid]
IC50 (Human LBAT): 28 nM

Source: patent publication US11773071B2, “Benzothiazepine compounds and their use as bile acid modulators” (Albireo AB, priority 2019, dated 2023)
